From patent publication US10738044B2, “Therapeutic compound and use in therapy” (PROXIMAGEN, LLC, priority 2015, dated 2020)

What was measured:
[1] = system: C57BL/10ScSn-Dmdx/J male mice; assay: Murine model of Duchenne's muscular dystrophy (mdx mice); format: in vivo, mouse; conditions: 100 mg/kg po bid for 4 weeks; FIG. 11
Protocol: C57BL/10ScSn-Dmdx/J male mice were dosed from 27 days for 4 weeks with either vehicle (n=5), prednisolone (1 mg/kg ip qd, n=8) or Example 1 (100 mg/kg po bid, n=8). At 8 weeks of age, blood was collected by retro-orbital bleeding, and mice were humanely euthanized by CO2 asphyxiation. One triceps surae was collected fresh and processed for immune cell sorting, one tibialis anterior was preserved in RNALater for RNA extraction, one whole hind limb and the diaphragm were fixed in 2% paraformaldehyde overnight at 4° C. for paraffin embedding and histology stains. Serum was prepared immediately after collection and frozen at −20° C. At the end of the study, all serum samples were dosed for Creatine Kinase on a Beckman Coulter AU Clinical Chemistry analyzer following manufacturer instructions (a modification of the International Federation of Clinical Chemistry method).
For immune cell sorting, muscle samples were enzymatically and mechanically dissociated following manufacturer instructions (Skeletal Muscle Dissociation KitCatalog no. 130-098-305, Miltenyi Biotec). Cells were stained with the following antibodies:
Stained cells were analyzed on a BD LSR II cytometer and counts of different populations were expressed in percentage of the number of live cells counted. Total RNAs were extracted with a modification of the Trizol method, reverse transcribed, and mRNAs of TGFα, and the following inflammation markers were quantified by the SYBR green method with GAPDH as a normalizer: […]

[2] = system: female C57BL/6 mice, CCl4-induced liver fibrosis; assay: Carbon tetrachloride induced liver fibrosis model; format: in vivo, mouse; conditions: 100 mg/kg bid orally for 28 days; FIG. 8
Protocol: Example 1 was assessed in a carbon tetrachloride (CCl4)-induced Liver Fibrosis Model. 7 week old female C57BL/6 mice were divided into four groups (n=5/group for one Control group to act as non-disease comparator and n=10/group for three CCl4-treated groups based on their body weight the day before the start of the treatment. Thirty mice were intraperitoneally administered 5% CCl4 in mineral oil at a volume of 100 uL twice a week (days 0, 4, 11, 14, 18, 21 and 25). Five mice intraperitoneally administered mineral oil instead of the 5% CCl4, served as the non-diseased control group. Example 1 (100 mg/kg bid), Valsartan (20 mg/kg qd, positive control) and Vehicle were administered orally (dose volume=10 mL/kg) for 28 days (days −1 to 27). […] For quantitative analysis of fibrosis area, bright field images of Sirius red-stained section was blindly captured using a digital camera at 100-fold magnification, and the Sirius red-stained positive areas in 5 fields/4 um section/mouse were measured using ImageJ software (National Institute of Health, USA) and in accordance with the following expression: (collagen area/total area-vascular lumen area)×100. […] Results were expressed as mean±SD. Comparison of the Valsartan group and Vehicle group in fibrosis area was assessed with student's t-test to confirm whether Valsartan worked as a positive control.

[3] = system: DSS-treated mice, established colitis; assay: Chronic DSS-induced colitis mouse model; format: in vivo
Protocol: Example 1 was assessed in the treatment of established disease in the chronic Dextran Sulphate (DSS)-induced colitis model. DSS was administered in the drinking water as a 3% solution for five days. DSS-treated mice were orally administered vehicle, 6-Thioguanine (0.5 mg/kg) or Example 1 (10 mg/kg, 30 mg/kg or 100 mg/kg) b.i.d. from Days 6 to 19. A no treatment control group of 5 mice was also used. Body weights were measured daily for 19 days and animals were assessed visually for the presence of diarrhea and/or bloody stool. All animals underwent video endoscopy on Days 5 (baseline), 12 and 19 to assess the extent of colitis and whether any beneficial treatment effects could be observed. All animals were euthanized on Day 19 to obtain colon tissues for pathology examination.

[4] = system: C57BL6 mice, laser-induced choroidal burns; assay: Mouse choroidal neovascularisation model; format: in vivo; conditions: topical 5 uL instillations tid days 0 to 12; day 12; FIG. 10
Protocol: Example 1 was assessed in a mouse choroidal neovascularisation model. Pigmented mice (C57BL6 strain, n=15 per group) each were induced with 3 choroidal burns in the right eyes using a 532 nm photocoagulator. Example 1 and vehicle were dosed topically using 5 uL instillations tid from days 0 to 12. On day 12, lesion size was determined by isolectine B4 immunostaining on flatmount choroids from the treated eyes and confocal microscopy for determining the size of the lesion.

[5] = system: female SJL mice, experimental allergic encephalomyelitis; assay: Mouse PLP139-151 relapsing-remitting EAE model; format: in vivo; conditions: 3, 10, 30 or 100 mg/kg orally twice daily, therapeutic; FIG. 7
Protocol: Example 1 was assessed in a PLP139-151 remitting and relapsing model of experimental allergic encephalomyelitis (EAE) in female SJL mice as an indicator of a potential treatment for multiple sclerosis in humans.
Adjuvant was prepared by homogenizing 100 mg Mycobacterium tuberculosis H37 RA in 50 mL Incomplete Freund's Adjuvant to prepare a 2 mg/mL suspension which was stored at 4-8° C. 50 ug pertussis toxin from Bordetella pertussis was reconstituted in 50 mL sterile PBS to prepare a 1 ug/mL solution which was kept in an ice bath. 10.35 mg PLP139-151 was dissolved in 10.35 mL sterile PBS to prepare a 1 mg/mL solution. 10 mL of PLP139-151 was emulsified with 10 mL adjuvant in ten batches in an ice bath to prepare a 0.5 mg/mL PLP139-151/1 mg/mL M. tuberculosis H37 RA emulsion which was kept in an ice bath. […] On day 0, 70 mice were injected subcutaneously in both flanks with 0.1 mL of the PLP139-151/CFA emulsion. Two hours later the mice were injected by intraperitoneal route with 0.2 mL pertussis toxin (200 ng/mouse). The mice were returned to routine maintenance with no adverse effects. On day 2, the mice were injected IP with 0.2 mL of pertussis toxin (200 ng/mouse). From day 7 the mice were weighed and scored for signs of disease as follows: 0=no obvious signs of motor dysfunction compared to non-immunized control; 1=limp or floppy tail; 2=limp tail and weakness in hind legs; 3=limp tail and complete paralysis of legs or limp tail with paralysis of one front and one hind leg; 4=limp tail, complete hind leg and partial front leg paralysis; 5=complete hind and complete front leg paralysis. On days 10-12, the mice were sorted into treatment groups based upon average score and twice daily oral administration of Example 1 (3, 10, 30 or 100 mg/kg), dexamethasone or vehicle (n=10 per group) was initiated. The disease score was monitored for 20 days.

[6] = system: serum TNFα in female Swiss Webster mice; assay: Murine model of LPS-induced cytokine release; format: in vivo, mouse; conditions: oral administration one hour prior to LPS challenge; serum one hour after LPS; FIG. 9
Protocol: Example 1 was assessed in an LPS-induced cytokine release assay. One hour after administration of Example 1, female Swiss Webster mice (n=5 per group) were injected intraperitoneally with 2 mL/kg LPS (1.5 mg/mL). One hour after LPS injection the mice were anesthetized and exsanguinated into pre-chilled serum separator microtainer tubes. The blood was processed to serum which was stored at −80° C. The frozen serum aliquots were thawed to room temperature, diluted 1:5 with sterile saline and assayed by ELISA for TNFα.

[7] = system: male DBA/1J mice, collagen-induced arthritis; assay: Established mouse collagen-induced arthritis model; format: in vivo
Protocol: Example 1 was assessed in an established mouse collagen-induced arthritis model. Disease was induced in male DBA/1J mice by means of a subcutaneous injection of a collagen (bovine)/CFA emulsion at the base of the tail. Each paw was scored daily and the sum of all four scores was recorded as the Arthritic Index (AI). The maximum possible AI was 16 (0=no visible effects of arthritis, 1=edema and/or erythema of one digit, 2=edema and/or erythema of 2 joints, 3=edema and/or erythema of more than 2 joints, 4=severe arthritis of the entire paw and digits including limb deformation and ankylosis of the joint). As animals developed disease, they were sorted into treatment groups with AI in the range of 2-6 and an average group AI of 3.6 prior to initiation of the dosing regimen. Example 1 (10, 50 and 100 mg/kg) was administered orally twice daily from day 30 post-inoculation.
Histological evaluation of the rear right hind limbs was also carried out. The joints were scored for severity of arthritis (inflammation, pannus, cartilage damage and bone damage) by a board certified pathologist, who was blind to the assigned treatment.

[8] = 100 mg/kg orally twice daily, rear right hind limbs, FIG. 2

## CC(C)[C@H]1c2[nH]cnc2CCN1C(=O)OCc1ccc(OCCCN(C)C)cc1 [Example 1, {4-[3-(Dimethylamino)propoxy]phenyl}methyl (4S)-4-(propan-2-yl)-3H,4H,5H,6H,7H-imidazo[4,5-c]pyridine-5-carboxylate]
[1]
  B cells: significant reduction
  T cells: significant reduction
  TGFβ: significant reduction
  cytokines: significant reduction
  macrophages: significant reduction
  pro-inflammatory monocytes: significant reduction
[2]
  deposition of collagen in the liver (Sirius red staining): significantly reduced
[3]; 100 mg/kg orally b.i.d.
  magnitude of the effect relative to positive control 6-Thioguanine (0.5 mg/kg): comparable to the effect seen with the positive control
[3]; 100 mg/kg orally b.i.d., FIG. 3
  overall body weight: statistically significant effects
[3]; 100 mg/kg orally b.i.d., FIG. 4
  endoscopy scores on day 12: statistically significant effects
[3]; 100 mg/kg orally b.i.d., FIG. 5
  colon weight: statistically significant effects
[3]; 100 mg/kg orally b.i.d., FIG. 6
  diarrhea: statistically significant effects
[3]; 10, 30 or 100 mg/kg orally b.i.d., Days 6 to 19
  overall effect in the DSS colitis model: dose-dependent improvement
[4]
  lesion size versus vehicle: significant reduction
[5]
  disease severity (EAE score): decrease in disease severity
  time to disease relapse: increased time to disease relapse
  time to disease remission: dose-dependent decrease in the time to disease remission
[6]
  serum TNFα levels relative to vehicle control: statistically significant dose-dependent decrease
[7]; 100 mg/kg orally twice daily, after two weeks of therapy, FIG. 1
  reduction in disease severity (Arthritic Index): 46%
[7]; [8]
  inhibition of bone resorption (joint histology): 84%
  inhibition of cartilage damage (joint histology): 60%
  inhibition of inflammation (joint histology): 60%
  inhibition of pannus formation (joint histology): 84%
[7]; 10, 50 and 100 mg/kg orally twice daily from day 30 post-inoculation, FIG. 1
  rate of disease development (Arthritic Index): dose-dependent decrease in the rate of disease development
